The test system of one data set is BP1 and MCF-10F cells. The data set can be described thus: 3H-thymidine incorporation cell growth. The data set is classed as cell-based, human. As to conditions: 18 hrs. A general note: Uptake of a labelled nucleoside into DNA is a usual measure of proliferation.
In data set [1] the test system is Hs578T cells. The data set can be described thus: Tumor invasion in Boyden Chambers. The data set is classed as cell-based, human. The conditions noted are these: 10^−5M, 2 days. As for the experimental part:
(§1) Hs578T cells were cultured in Boyden Chambers (FIG. 7A) or in Matrigel (FIG. 7B) in the presence of DMSO, 10^−5M CMLD-2166, CMLD-2186 (a 2166 enantiomer) or CH223191 and assayed for invasion 2 (Boyden Chambers) or 7 (Matrigel) days later.

For data set [2], the system named is Hs578T cells. The data set can be described thus: Tumor invasion in Matrigel, Hs578T. The data set is classed as cell-based, human. As to conditions: 10^−5M, 7 days. The procedure:
as §1

Data set [3] deals with bone marrow hematopoietic cells. The data set can be described thus: DMBA-induced bone marrow toxicity in mice. It is filed as in vivo, C57BL/6 mice. The conditions noted are these: 48 hours; for DMBA-induced decrease in total number of bone marrow cells: 50 mg/kg i.p., 50 mg/kg DMBA; for DMBA-induced decrease in pro B cells, pre-B cells and neutrophils: co-administration with 50 mg/kg DMBA. As for the experimental part:
To test the ability of one of the lead compounds described herein, CB7993113, to be absorbed and to function effectively in vivo, C57BL/6 mice were treated with an acutely toxic dose (50 mg/kg) of DMBA, a potent AhR agonist, in the presence or absence of CB7993113 or another AhR inhibitor, CH223191. […] This decrease in the total number of bone marrow cells was prevented by the i.p. injection of 50 mg/kg CH223191 or CB7993113.
Mice then were injected with 50 mg/kg DMBA. Mice were sacrificed 48 hours later. Bone marrow hematopoietic cells were expunged from the bone and viable cells counted. Data are presented as the average number of viable white blood cells+SE. **p<0.01, ***P<0.001, student's t-test. […] C57BL/6 mice (6/group) were treated as in FIG. 8A. The percentage and number of viable bone marrow pro B cells, pre B cells, and neutrophils were determined 48 hours later by flow cytometry. Data are presented as the average number of viable cells of each subtype+SE. (*p<0.05, **P<0.01, student's t-test).

Another data set has as its target T1, PPARγ (Homo sapiens, UniProt P37231).
T1 construct: expressed in transfected cells; host or cells: Cos 7 cells
T1 sequence (P37231 1-505): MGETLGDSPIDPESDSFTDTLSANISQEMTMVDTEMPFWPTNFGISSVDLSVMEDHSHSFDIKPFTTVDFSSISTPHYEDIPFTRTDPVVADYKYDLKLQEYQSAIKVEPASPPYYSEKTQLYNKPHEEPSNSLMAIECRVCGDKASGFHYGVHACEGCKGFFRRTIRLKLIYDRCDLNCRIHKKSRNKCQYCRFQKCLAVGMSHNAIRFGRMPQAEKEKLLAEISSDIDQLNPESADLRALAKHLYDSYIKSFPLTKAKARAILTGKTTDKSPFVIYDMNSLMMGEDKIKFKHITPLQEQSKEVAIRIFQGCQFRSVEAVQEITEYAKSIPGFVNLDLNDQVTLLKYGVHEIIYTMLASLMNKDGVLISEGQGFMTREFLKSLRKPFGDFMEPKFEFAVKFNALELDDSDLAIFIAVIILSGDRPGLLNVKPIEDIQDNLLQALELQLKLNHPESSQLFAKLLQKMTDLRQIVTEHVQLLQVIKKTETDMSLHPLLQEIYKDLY
T1 sequence (P19793 1-462 partner): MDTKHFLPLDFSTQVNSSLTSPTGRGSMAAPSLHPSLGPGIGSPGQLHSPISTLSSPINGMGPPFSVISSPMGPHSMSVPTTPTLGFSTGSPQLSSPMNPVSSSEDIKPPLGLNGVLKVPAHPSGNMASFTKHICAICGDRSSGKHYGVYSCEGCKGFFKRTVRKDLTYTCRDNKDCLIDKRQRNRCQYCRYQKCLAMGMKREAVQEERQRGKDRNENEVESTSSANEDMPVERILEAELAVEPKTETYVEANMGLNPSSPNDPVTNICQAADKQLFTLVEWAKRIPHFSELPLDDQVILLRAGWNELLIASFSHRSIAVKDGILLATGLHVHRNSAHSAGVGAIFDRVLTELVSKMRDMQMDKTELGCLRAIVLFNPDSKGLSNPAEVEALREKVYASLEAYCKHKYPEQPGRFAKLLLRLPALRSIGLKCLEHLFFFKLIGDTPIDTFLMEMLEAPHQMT
The data set can be described thus: PPARγ-driven luciferase reporter in Cos 7 cells. The data set is classed as cell-based. The conditions noted are these: rosiglitazone 1 μM, 18-24 hrs. The procedure:
Cos 7 cells were transfected with the peroxisome proliferator activator receptor-γ (PPARγ), its dimerization partner, RXR, a PPARγ-driven luciferase reporter construct, and a control CMV-driven GFP reporter for 24 hours. Cells then were treated with a vehicle, 10 μM AhR inhibitor CH223191, 50 μM AhR inhibitor CMLD-2166, or 10 μM AhR inhibitor CB7993113. (These represent high AhR inhibitor doses). Rosiglitazone (1 μM), a strong PPARγ agonist, was added 1 hour later and cells assayed 18-24 hrs thereafter for PPARγ-driven reporter activity (luciferase intensity), normalized to the GFP signal. Data were pooled from 4 experiments. Unlike their ability to block AhR-driven reporter activity, the AhR inhibitors had no effect on the PPARγ-driven reporter activity.
On the technique in general: In a reporter assay the amount or activity of a reporter protein is the signal.

Data set [4] deals with T2, AhR (Mus musculus, UniProt P30561). The data set can be described thus: High throughput AhR-driven GFP reporter bioassay in H1G1 cells. It is filed as cell-based. Further details: H1G1 cells expressing an AhR-driven GFP reporter construct; endogenous in cells; host or cells: H1G1 cells. The conditions noted are these: titered in presence of 1 μM BNF; read-out: AhR Antagonists IC50. As for the experimental part: Using a high throughput reporter-based AhR bioassay and cell viability assay, over 4000 CMLD compounds, FDA drugs, and NCI-generated extracts were screened, and 8 non-toxic AhR inhibitors (2 from the CMLD) and 19 AhR agonists (14 from the CMLD) were identified (as shown in, e.g., FIGS. 4A-4B). IC50 values for inhibitors and EC50 values for agonists were determined (Table 1). One of these discovered inhibitors (CMLD-2166), its enantiomer (CMLD-2186), and a previously described lipid soluble AhR inhibitor (CH223191) blocked tumor growth and invasion (FIGS. 5A-5B and 7A-7B).
T2 sequence (P30561 10-805 limits assumed): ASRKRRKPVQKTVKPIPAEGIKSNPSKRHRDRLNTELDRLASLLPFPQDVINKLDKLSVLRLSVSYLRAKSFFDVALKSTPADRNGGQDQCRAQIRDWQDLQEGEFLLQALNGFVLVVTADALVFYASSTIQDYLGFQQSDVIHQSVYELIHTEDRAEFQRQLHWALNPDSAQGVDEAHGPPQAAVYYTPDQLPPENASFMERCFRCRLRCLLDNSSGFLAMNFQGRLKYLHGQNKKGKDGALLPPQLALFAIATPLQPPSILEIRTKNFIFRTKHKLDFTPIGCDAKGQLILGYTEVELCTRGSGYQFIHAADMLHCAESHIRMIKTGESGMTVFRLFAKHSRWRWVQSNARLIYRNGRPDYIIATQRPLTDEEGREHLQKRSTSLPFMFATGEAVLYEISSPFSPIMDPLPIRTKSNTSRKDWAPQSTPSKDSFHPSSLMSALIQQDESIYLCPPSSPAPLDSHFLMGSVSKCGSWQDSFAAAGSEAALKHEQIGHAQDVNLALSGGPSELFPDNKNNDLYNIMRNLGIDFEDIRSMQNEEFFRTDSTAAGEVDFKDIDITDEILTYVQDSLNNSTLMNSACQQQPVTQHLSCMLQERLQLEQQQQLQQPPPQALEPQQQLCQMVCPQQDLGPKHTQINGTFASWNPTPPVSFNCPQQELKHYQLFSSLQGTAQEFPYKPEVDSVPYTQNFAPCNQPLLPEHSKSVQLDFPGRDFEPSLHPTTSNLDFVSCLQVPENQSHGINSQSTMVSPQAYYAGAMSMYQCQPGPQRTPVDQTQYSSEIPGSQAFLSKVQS
T2 sequence (P11499 whole entry partner): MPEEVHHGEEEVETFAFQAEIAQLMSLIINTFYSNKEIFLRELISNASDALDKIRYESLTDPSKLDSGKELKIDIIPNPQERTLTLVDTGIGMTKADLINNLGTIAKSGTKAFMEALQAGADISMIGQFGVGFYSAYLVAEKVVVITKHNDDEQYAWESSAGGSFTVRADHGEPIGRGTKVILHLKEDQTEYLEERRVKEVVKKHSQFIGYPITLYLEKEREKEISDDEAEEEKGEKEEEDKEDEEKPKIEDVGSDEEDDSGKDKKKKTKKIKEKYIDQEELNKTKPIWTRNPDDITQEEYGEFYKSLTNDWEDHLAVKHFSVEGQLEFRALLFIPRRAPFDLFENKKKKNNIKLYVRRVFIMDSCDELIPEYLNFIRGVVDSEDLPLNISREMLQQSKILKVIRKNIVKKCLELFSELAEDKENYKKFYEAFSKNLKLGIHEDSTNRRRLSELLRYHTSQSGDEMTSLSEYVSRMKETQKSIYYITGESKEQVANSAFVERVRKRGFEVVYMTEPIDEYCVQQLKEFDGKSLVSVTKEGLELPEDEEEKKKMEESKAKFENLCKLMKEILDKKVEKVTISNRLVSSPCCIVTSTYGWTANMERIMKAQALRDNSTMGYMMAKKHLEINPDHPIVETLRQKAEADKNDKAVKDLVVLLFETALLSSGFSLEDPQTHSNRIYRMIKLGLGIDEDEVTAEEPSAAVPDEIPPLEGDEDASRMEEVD
T2 sequence (O08915 whole entry partner): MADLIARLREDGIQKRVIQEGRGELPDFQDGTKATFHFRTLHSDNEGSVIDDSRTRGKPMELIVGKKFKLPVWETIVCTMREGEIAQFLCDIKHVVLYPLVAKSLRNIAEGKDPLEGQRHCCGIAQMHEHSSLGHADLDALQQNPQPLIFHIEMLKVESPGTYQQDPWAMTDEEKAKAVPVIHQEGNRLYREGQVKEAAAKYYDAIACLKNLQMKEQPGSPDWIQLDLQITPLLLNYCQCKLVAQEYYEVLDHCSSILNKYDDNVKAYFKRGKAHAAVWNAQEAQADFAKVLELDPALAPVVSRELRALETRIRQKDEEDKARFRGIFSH
FIGS. 4A-4B show high-throughput screening (HTS) for AhR agonists and antagonists. […] A dark circle identifies an AhR inhibitor while the light circle indicates an agonist. […] Over 4,000 compounds were screened in this semi-automated assay.

The target in data set [5] is T3, AhR (Homo sapiens, UniProt P35869).
T3 sequence (P35869 11-848): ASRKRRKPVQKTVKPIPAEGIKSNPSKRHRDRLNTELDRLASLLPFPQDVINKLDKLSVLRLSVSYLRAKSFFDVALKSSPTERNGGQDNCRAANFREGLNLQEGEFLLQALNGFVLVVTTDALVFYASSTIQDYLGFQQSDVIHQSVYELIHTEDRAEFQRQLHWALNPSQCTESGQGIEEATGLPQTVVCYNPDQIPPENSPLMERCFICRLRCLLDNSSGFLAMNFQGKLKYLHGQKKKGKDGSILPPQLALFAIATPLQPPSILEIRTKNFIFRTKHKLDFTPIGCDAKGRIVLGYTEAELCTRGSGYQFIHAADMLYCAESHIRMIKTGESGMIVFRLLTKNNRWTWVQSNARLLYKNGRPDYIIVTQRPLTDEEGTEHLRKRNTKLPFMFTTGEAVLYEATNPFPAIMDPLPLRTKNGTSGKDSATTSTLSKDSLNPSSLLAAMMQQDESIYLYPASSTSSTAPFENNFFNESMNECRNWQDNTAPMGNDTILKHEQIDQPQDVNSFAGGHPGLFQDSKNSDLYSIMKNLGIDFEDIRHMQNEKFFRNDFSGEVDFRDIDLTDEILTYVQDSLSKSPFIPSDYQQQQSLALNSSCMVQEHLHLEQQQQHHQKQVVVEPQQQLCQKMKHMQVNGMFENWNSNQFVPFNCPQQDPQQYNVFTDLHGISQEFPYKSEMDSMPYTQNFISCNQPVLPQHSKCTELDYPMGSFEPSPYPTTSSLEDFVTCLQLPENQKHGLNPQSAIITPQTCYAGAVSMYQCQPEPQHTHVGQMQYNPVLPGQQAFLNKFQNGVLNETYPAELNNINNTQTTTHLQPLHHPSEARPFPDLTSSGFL
The data set can be described thus: AhR-responsive pGudLuc reporter, constitutive AhR activity. The data set is classed as cell-based. Further details: malignant BP1 and immortalized MCF-10F cells that were transiently transfected with AhR-responsive pGudLuc; endogenous in cells; host or cells: BP1 and MCF-10F cells. The conditions noted are these: BP1 and MCF-10F cells, 24 hrs.

Data set [6] has as its system BP1 cells. The data set can be described thus: Tumor invasion in Matrigel, BP1. The data set is classed as cell-based, human. As to conditions: 5 uM, 5 days. The procedure:
(§2) BP1 cells were cultured in the presence of vehicle (left) or 5 uM CB7993113 in Matrigel for 5 days. CB7993113 is not toxic at the highest doses tested, 10 uM.
BP1 cells were cultured in Matrigel in the presence of vehicle, 5 μM DIM (16A), vehicle or 5 uM CB7950998 (16B) for 5 days.

Data set [7] concerns the target T3, AhR. The data set can be described thus: Radiolabeled TCDD displacement from in vitro translated AhR, sucrose gradient. It is filed as binding. Also on record: made in house. The conditions noted are these: fractions 13-16 of sucrose gradient. From the text:
The compounds CMLD-2166 and CB7993113 were mixed with in vitro translated human AhR and radiolabeled TCDD (dioxin), a high affinity AhR ligand. Complexes then were separated on a sucrose gradient and fractions assayed for radioactivity. A decrease in the signal (displacement of radiolabeled TCDD) can be seen in fractions 13-16 indicating binding of the test compound to the AhR and displacement of TCDD.

Data set [8] has as its system BP1 cells. The data set can be described thus: Toxicity of CB7993113 at highest doses tested. It is filed as cell-based, human. As to conditions: 10 uM. The procedure:
as §2

The target of data set [9] is T2, AhR. The data set can be described thus: AhR nuclear translocation, western immunoblot of Hepa-1 nuclear and cytoplasmic extracts. The data set is classed as cell-based. Further details: endogenous in cells. As to conditions: Hepa-1 cells. The procedure:
To determine whether the inhibitory action of CB7993113 involves binding to the AhR and blocking its translocation to the nucleus, Hepa-1 cells were treated with 1-10 uM CB7993113. One hour later they were challenged with a strong AhR agonist and prototypic PAH, DMBA (1 uM). After a 30 minute incubation period, cells were harvested and extracts from cell nuclei and cytoplasm were obtained. These extracts then were probed for levels of AhR and, as a loading control, β-actin, by western immunoblotting.
Hepa-1 cells were treated with vehicle or 1-10 μM CH223191. One hour later cells were treated with 0.1 μM DMBA (where indicated) and incubated for 30 minutes. Cells were harvested and proteins from the cytoplasm and nuclei were extracted. Extracted proteins were subjected to AhR- or, as loading control, β-actin-specific western immunoblots. Data are representative of 3 independent experiments.
On the technique in general: A western blot detects proteins with antibodies after separation by electrophoresis.

pIC50: −log10 of the molar value. “Also recorded” adds a separate entry of the source.

These results are taken from patent publication US10258600B2, “Aryl hydrocarbon receptor (AhR) modifiers as novel cancer therapeutics” (Trustees of Boston University, priority 2010, dated 2019).

By pIC50 is commonly meant −log10 of the IC50, conventionally taken in molar units.

Consider `Cc1ccccc1N=Nc1ccc(NC(=O)c2ccnn2C)c(C)c1` [CH223191, reference compound], for which the “cell growth (3H-thymidine incorporation)” value with BP1 and MCF-10F cells is reported as “blocked; also recorded: inhibit”. In addition, the “tumor invasion, Boyden Chambers” value in the data set with Hs578T cells [1] was “inhibit tumor invasion”. The “tumor invasion, Matrigel” value with Hs578T cells [2] is “inhibit tumor invasion”. In addition, in data set [3], the “DMBA-induced decrease in total number of bone marrow cells” value was “prevented”; the “DMBA-induced decrease in pro B cells, pre-B cells and neutrophils” value is recorded as “completely blocked”. Besides, on PPARγ (10 μM), the PPARγ-driven reporter activity result was “no effect”. Besides, the pIC50 at AhR [4] is 6.48. Besides, the “constitutive AhR activity (pGudLuc activity)” value at AhR [5] was “inhibit”.
Take `CCOC(=O)Oc1c(-c2ccc(Cl)cc2)oc2ccccc2c1=O` [CB7950998]: the “BP1 tumor invasion in Matrigel” value in the data set with BP1 cells [6] was “reduce”.
As to `COc1ccc2c(c1)C(=O)[C@H](OC(=O)NS(=O)(=O)c1ccc(C)cc1)[C@@H](c1ccc(OC)c(Br)c1)O2` [CMLD-2166], the “cell growth (3H-thymidine incorporation)” value with BP1 and MCF-10F cells is recorded as “blocked”; in the data set with BP1 and MCF-10F cells (listed as CMLD 2166), “inhibit”. Moreover, the “tumor invasion, Boyden Chambers” value in the data set with Hs578T cells [1] was “inhibit tumor invasion”. Besides, in the data set on Hs578T cells [2], the “tumor invasion, Matrigel” value was “inhibit tumor invasion”. Moreover, the PPARγ-driven reporter activity result at PPARγ (50 μM) was “no effect”. For the same molecule, the “binding to AhR (displacement of radiolabeled TCDD)” value on AhR [7] is listed as “bind human AhR”. For the same molecule, the pIC50 at AhR [4] was 6.70. In addition, at AhR [5], the “constitutive AhR activity (pGudLuc activity)” value is recorded as “inhibit”.
On to `NC(=O)COc1c(-c2ccc(Br)o2)oc2ccccc2c1=O` [CB7993113], for which the “BP1 tumor invasion in Matrigel” value with BP1 cells [6] is “blocks”. In addition, in data set [3], the “DMBA-induced decrease in total number of bone marrow cells” value is “prevented”; the “DMBA-induced decrease in pro B cells, pre-B cells and neutrophils” value was “completely blocked”. Moreover, the PPARγ-driven reporter activity entry at PPARγ (10 μM) is “no effect”. Also, the toxicity result with BP1 cells [8] was “not toxic”. The “binding to AhR (displacement of radiolabeled TCDD)” value at AhR [7] is on record as “bind human AhR”. At AhR [9] (1-10 uM, 1 h before DMBA, 30 min), the “DMBA-induced AhR translocation to the nucleus” value is on record as “completely blocked”. In addition, the “translocation of the AhR to the nucleus, inhibitor alone (agonist activity)” value on AhR [9] (no DMBA) was “no effect”.
Regarding `c1ccc2c(Cc3c[nH]c4ccccc34)c[nH]c2c1` [DIM, 3,3′-diindolylmethane, reference compound], the “BP1 tumor invasion in Matrigel” value in the data set on BP1 cells [6] is “reduce”.
